The values below come from patent US10065950B2, “Substituted thiazoles as HIV integrase inhibitors” (Japan Tobacco Inc., priority 2010, dated 2018).

This assay concerns the target HIV-1 pNL4-3 integrase (Human immunodeficiency virus type 1 group M subtype B (isolate NY5) (HIV-1), UniProt P12497). The experiment in a line: Determination of enzyme (HIV integrase) inhibitory activity. The settings on record: calculated from inhibition rate (fluorescence). It is filed as biochemical. Here is the method: The following explains evaluation methods of the HIV integrase inhibitory activity of the compound of the present invention.
A full-length gene sequence (Accession No.: M19921) of HIV-1 pNL4-3 integrase was inserted into restriction enzyme Nde I and Xho I sites of plasmid pET21a(+) (manufactured by Novagen) to construct an integrase expression vector pET21a-IN-Wild type.
Escherichia coli recombinant BL21(DE3) transformed with plasmid pET21a-IN-Wild type obtained in (i) was shake cultured at 30° C. in a liquid medium containing ampicillin. When the culture reached the logarithmic growth phase, isopropyl-β-D-thiogalactopyranoside was added to promote expression of integrase gene. The culture was continued for 5 hr to promote accumulation of the integrase protein. The recombinant E. coli was collected in pellets by centrifugal separation and preserved at −80° C.
This Escherichia coli was suspended in Lysis buffer (50 mM Tris-HCl (pH 7.6), 10 mM MgCl2, 5 mM DTT), and disrupted by repeating treatments of pressurization and depressurization, and insoluble fraction was collected by centrifugation at 4° C., 18,000 rpm for 60 min. This was suspended in Lysis buffer containing a protease inhibitor, […] and 10 mM CHAPS were added, and the mixture was stirred at 4° C. for 30 min. Water-soluble fraction was collected by centrifugation at 4° C., 9,000 rpm for 30 min. The obtained fraction was diluted with a column buffer (50 mM Tris-HCl (pH 7.6), 1 mM DTT, 10% Glycerol, 10 mM CHAPS) to 5-fold, and the mixture was applied to heparin column (HiPrep 16/10 Heparin FF column: manufactured by GE Healthcare Bio-Sciences). Using a column buffer containing 1M NaCl, a protein was eluted with 0-1M NaCl concentration gradient, and an eluted fraction containing an integrase protein was collected. The obtained fraction was diluted 5-fold with a column buffer (50 mM Tris-HCl (pH 7.6), 1 mM DTT, 10% Glycerol, 10 mM CHAPS), and the mixture was applied to cation exchange column (Mono-S column: manufactured by GE Healthcare Bio-Sciences). Using a column buffer containing 1M NaCl, a protein was eluted with 0-1M NaCl concentration gradient, and an eluted fraction containing an integrase protein was collected. The obtained fractions of the integrase protein were collected, and preserved at −80° C.
The following DNA synthesized by FASMAC was dissolved in TE buffer (10 mM Tris-hydrochloric acid (pH 8.0), 1 mM EDTA) and mixed with donor DNA, target DNA, and each complementary strand (+ and − strands) to 1 μM. The mixture was heated at 95° C. for 5 min, 80° C. for 10 min, 70° C. for 10 min, 60° C. for 10 min, 50° C. for 10 min and 40° C. for 10 min and kept at 25° C. to give a double stranded DNA, which was used for the test.
Donor DNA (+strand having biotin attached to the 5′ terminal)
Target DNA (+, − strands both having digoxigenin attached to the 3′ terminal)
The donor DNA was diluted with TE buffer to 20 nM, of which 50 μL was added to each well of streptavidin-coated black plate (manufactured by PIAS Corporation) and allowed to adsorb at 37° C. for 20 min. The plate was washed with phosphate buffer (Dulbecco's PBS, Sanko Junyaku Co., Ltd.) containing 0.1% Tween 20 and phosphate buffer. Then, an enzyme reaction mixture (70 μL), a test substance (10 μL) diluted with the enzyme reaction mixture and 0.75 μM integrase protein (10 μL) were added to each well and the mixture was reacted at 37° C. for 60 min. composition of enzyme reaction mixture: 30 mM MOPS (3-morpholinopropanesulfonic acid), 5 mM magnesium chloride, 3 mM DTT (dithiothreitol), 0.1 mg/mL BSA (bovine serum albumin), 5% glycerol, 10% DMSO (dimethyl sulfoxide), 0.01% Tween 20.
Then, 25 nM target DNA (10 μL) was added, and the mixture was reacted at 37° C. for 20 min and washed with phosphate buffer containing 0.1% Tween 20 to stop the reaction. […]

For orientation: IC50 means the concentration needed to halve the response being measured.

For `CO[C@@H]1CCN(C(=O)[C@@]2(C)CN(C(C)C)C(=O)c3c(O)c(=O)c(-c4nnc(Cc5ccc(F)cc5)s4)cn32)C1` [Example 211], the IC50 is 16 nM.

Consider `CCN1C(=O)c2c(O)c(=O)c(-c3ncc(Cc4ccc(F)cc4)s3)cn2[C@@H](C)[C@H]1COC` [Example 260], for which the 50% inhibitory concentration (IC50) was 12 nM. The same measure for `CCC(OC)[C@H]1CN(C(C)C)C(=O)c2c(O)c(=O)c(-c3nnc(Cc4ccc(F)cc4)s3)cn21` (stereo partly shown) [Example 382]: 8.7 nM. As for `CO[C@H](C)[C@H]1CN(C(C)C)C(=O)c2c(O)c(=O)c(-c3ncc(Cc4ccc(F)cc4)s3)cn21` [Example 386], the half-inhibitory concentration (IC50) was 15 nM. Next, `CC(C)N1C[C@](C)(C(=O)N(C)C)n2cc(-c3nnc(Cc4ccc(F)cc4)s3)c(=O)c(O)c2C1=O` [Example 177]: 17 nM.

Take `COC[C@H]1CN([C@@H](C)C2CC2)C(=O)c2c(O)c(=O)c(-c3nnc(Cc4ccc(F)cc4)s3)cn21` [Example 316]: the IC50 was 12 nM. The same measure for `CC(C)N1C[C@](C)(C(=O)N2CC[C@H](O)C2)n2cc(-c3nnc(Cc4ccc(F)cc4)s3)c(=O)c(O)c2C1=O` [Example 204]: 13 nM; for `CCOC[C@@H]1Cn2cc(-c3ncc(Cc4ccc(F)cc4)s3)c(=O)c(O)c2C(=O)N1CC1CC1` [Example 218]: 6.5 nM; for `CC(C)N1C(=O)c2c(O)c(=O)c(-c3nnc(Cc4ccc(F)cc4)s3)cn2C[C@@]1(C)C(=O)O` [Example 312]: 12 nM. Next, `CC(C)N1C(=O)c2c(O)c(=O)c(-c3nnc(Cc4ccc(F)cc4F)s3)cn2CC12CCOCC2` [Example 100]: 8.1 nM; `CCN1C[C@](C)(CO)n2cc(-c3nnc(Cc4ccc(F)cc4)s3)c(=O)c(O)c2C1=O` [Example 269]: 9.4 nM; `COCCN(C)C(=O)[C@@]1(C)CN(C(C)C)C(=O)c2c(O)c(=O)c(-c3nnc(Cc4ccc(F)cc4)s3)cn21` [Example 202]: 13 nM.

As for `CC[C@]1(C(=O)N2CCC2)CN(C(C)C)C(=O)c2c(O)c(=O)c(-c3nnc(Cc4ccc(F)cc4)s3)cn21` [Example 392], the half-maximal inhibitory concentration (IC50) was 11 nM. Regarding `CC(C)N1CC(C(=O)N(C)C)n2cc(-c3ncc(Cc4ccc(F)cc4F)s3)c(=O)c(O)c2C1=O` (stereo not shown) [Example 26], the IC50 was 7.6 nM. Next, `CC(C)CNC(=O)[C@@]1(C)CN(C(C)C)C(=O)c2c(O)c(=O)c(-c3nnc(Cc4ccc(F)cc4)s3)cn21` [Example 186]: 18 nM; `COC[C@@H]1CN(C(C)C)C(=O)c2c(O)c(=O)c(-c3nnc(Cc4ccc(F)cc4)s3)cn21` [Example 88]: 8.7 nM. For `CC(C)N1C(=O)c2c(O)c(=O)c(-c3nnc(Cc4ccc(F)cc4F)s3)cn2C[C@H]1CNS(C)(=O)=O` [Example 158], the concentration for half-maximal inhibition (IC50) was 5.4 nM. The same measure for `C[C@H](C1CC1)N1C[C@](C)(C(=O)N2CCC2)n2cc(-c3ncc(Cc4ccc(F)cc4)s3)c(=O)c(O)c2C1=O` [Example 280]: 16 nM. On to `CCN1C(=O)c2c(O)c(=O)c(-c3nnc(Cc4ccc(F)cc4)s3)cn2[C@H](C)[C@H]1COC` [Example 305], for which the IC50 is 9.5 nM. Next, `CC(C)N1C(=O)c2c(O)c(=O)c(-c3nnc(Cc4ccc(F)cc4F)s3)cn2C[C@H]1CO` [Example 133]: 7.4 nM; `CO[C@H]1CCN(C(=O)[C@@]2(C)CN(C(C)C)C(=O)c3c(O)c(=O)c(-c4ncc(Cc5ccc(F)cc5)s4)cn32)C1` [Example 214]: 16 nM. Regarding `CC(C)[C@@H]1Cn2cc(-c3nnc(Cc4ccc(F)cc4)s3)c(=O)c(O)c2C(=O)N1C(C)C` [Example 221], the half-inhibitory concentration (IC50) is 8.4 nM. As for `COCCOC[C@H]1CN(CC(C)(C)C)C(=O)c2c(O)c(=O)c(-c3nnc(Cc4ccc(F)cc4F)s3)cn21` [Example 124], the half-maximal inhibitory concentration (IC50) was 15 nM. For `CC(C)N1C(=O)c2c(O)c(=O)c(-c3nnc(Cc4ccc(F)cc4)s3)cn2C[C@@]1(C)C(=O)N1CCC1` [Example 310], the half-maximal inhibitory concentration (IC50) was 9.9 nM. On to `CC(C)N1CC(C#N)n2cc(-c3ncc(Cc4ccc(F)cc4F)s3)c(=O)c(O)c2C1=O` (stereo not shown) [Example 79], for which the IC50 was 6.4 nM. Next, `CO[C@@H](C)COC[C@H]1CN(C(C)C)C(=O)c2c(O)c(=O)c(-c3nnc(Cc4ccc(F)cc4)s3)cn21` [Example 385]: 8.2 nM; `CCN1C[C@@H](COC)n2cc(-c3nnc(Cc4ccc(F)cc4F)s3)c(=O)c(O)c2C1=O` [Example 89]: 8 nM; `COCC1CN(C(=O)[C@@]2(C)CN(C(C)C)C(=O)c3c(O)c(=O)c(-c4ncc(Cc5ccc(F)cc5)s4)cn32)C1` [Example 238]: 18 nM. Next, `CC(C)N1C(=O)c2c(O)c(=O)c(-c3nnc(Cc4ccc(F)cc4)s3)cn2C[C@@]1(C)C(=O)N1CCOCC1` [Example 311]: 9.7 nM; `CC(C)N1C(=O)c2c(O)c(=O)c(-c3nnc(Cc4ccc(F)cc4F)s3)cn2C[C@H]1CN(C)S(C)(=O)=O` [Example 154]: 7.3 nM. The same measure for `CC(C)N1CC(CS(C)(=O)=O)n2cc(-c3ncc(Cc4ccc(F)cc4F)s3)c(=O)c(O)c2C1=O` (stereo not shown) [Example 101]: 6.4 nM.

As to `COC[C@@H]1Cn2cc(-c3nnc(Cc4ccc(F)cc4)s3)c(=O)c(O)c2C(=O)N1C1CCC1` [Example 195], the IC50 was 5.9 nM. Turning to `COC[C@@H]1[C@@H](C)N(C(C)C)C(=O)c2c(O)c(=O)c(-c3nnc(Cc4ccc(F)cc4)s3)cn21` [Example 288], the half-inhibitory concentration (IC50) is 8.8 nM. The same measure for `CC(C)N1C[C@@](C)(C(=O)N2CCCC2)n2cc(-c3ncc(Cc4ccc(F)cc4)s3)c(=O)c(O)c2C1=O` [Example 225]: 18 nM. For the molecule `CC(C)N1C[C@@H](C)n2cc(-c3nnc(Cc4ccc(F)cc4F)s3)c(=O)c(O)c2C1=O` [Example 132], the IC50 was 9.1 nM. The same measure for `CC(C)N1CC2(CC2)n2cc(-c3nnc(Cc4ccc(F)cc4)s3)c(=O)c(O)c2C1=O` [Example 175]: 9.5 nM.

As for `CCNC(=O)[C@]1(C)Cn2cc(-c3nnc(Cc4ccc(F)cc4)s3)c(=O)c(O)c2C(=O)N1C(C)C` [Example 307], the IC50 is 11 nM.

In the case of `CCN1C(=O)c2c(O)c(=O)c(-c3nnc(Cc4ccc(F)cc4)s3)cn2C[C@]1(C)COC` [Example 318], the IC50 is 6.5 nM. Next, `COC[C@@H]1[C@H](C)N(C(C)C)C(=O)c2c(O)c(=O)c(-c3nnc(Cc4ccc(F)cc4)s3)cn21` [Example 356]: 8.9 nM; `COC[C@H]1CN(C(C)C)C(=O)c2c(O)c(=O)c(-c3nnc(Cc4ccc(C(F)(F)F)cc4)s3)cn21` [Example 244]: 74 nM. Next, `CC(C)N1CC(C)(C(=O)N2CCCC2)n2cc(-c3ncc(Cc4ccc(F)cc4F)s3)c(=O)c(O)c2C1=O` (stereo not shown) [Example 39]: 10 nM; `CC(C)C(=O)NCC1CN(C(C)C)C(=O)c2c(O)c(=O)c(-c3ncc(Cc4ccc(F)cc4F)s3)cn21` (stereo not shown) [Example 69]: 13 nM. As for `CNC(=O)C1(C)CN(C(C)C)C(=O)c2c(O)c(=O)c(-c3ncc(Cc4ccc(F)cc4)s3)cn21` (stereo not shown) [Example 104], the IC50 was 15 nM.

Turning to `CC(C)N1C(=O)c2c(O)c(=O)c(-c3nnc(Cc4ccc(F)cc4)s3)cn2C[C@@]1(C)C(=O)N1CCCC1` [Example 306], the IC50 was 10 nM. The same measure for `CC(C)NC(=O)[C@]1(C)Cn2cc(-c3nnc(Cc4ccc(F)cc4)s3)c(=O)c(O)c2C(=O)N1C(C)C` [Example 308]: 13 nM; for `COC[C@H]1CN(C(C)C)C(=O)c2c(O)c(=O)c(-c3nnc(Cc4ccc(F)cc4F)s3)cn21` [Example 85]: 7.5 nM.
